The text below walks through data of paper PMC8778187, “A New Oxygen Containing Pyclen-Type Ligand as a Manganese(II) Binder for MRI and ^52Mn PET Applications: Equilibrium, Kinetic, Relaxometric, Structural and Radiochemical Studies” (Molecules, 2022).

Structures are written as SMILES. “And” between values parts separate entries of the source, which are not always exact repeats. Identical values can stand only once.

A short description of the series: Metal exchange reactions with Cu(II) followed by UV-Vis as a function of pH. The class given is physicochemical. The protocol: Metal exchange reactions occurring with Cu(II) studied as a function of pH: a more detailed dissociation kinetic study was performed by using the Cu(II) ion. Metal exchange reactions occurring with Cu(II) were followed by UV-Vis as a function of the pH (in the pH range of 3.44–4.97) and metal ion concentration (20- and 40-fold excess of Cu(II) was applied), in order to evaluate the rates of spontaneous (k0 rate constant) and/or proton assisted (k1 rate constant) and/or metal ion provoked dissociation (kM).
As it can be seen in Figure 4, the rate constants (kobs) are proportional to the H^+ ion concentration, while they slightly decrease with the increasing Cu(II) concentration. Therefore, one can assume that [Mn(3,9-OPC2A)] dissociates by following spontaneous (the positive value of the intercept with the y axis) and proton assisted pathways, while Cu(II) is involved in the formation of a dinuclear intermediate with a relatively low stability [Mn(3,9-OPC2A)Cu]^2+, which is a “dead-end” complex (i.e., its formation reduces the concentration of the reactive protonated species, thereby slowing down the reaction). The dissociation pathways followed by [Mn(3,9-OPC2A)] can be accounted for by Equation (1), where [Mn(L)]t is the total concentration of the Mn(II) complex, and the k0, kH, and kM are the rate constants characterizing the spontaneous, the proton and metal ion assisted pathways, respectively. (1) −d[Mn(L)]/dt=kobs[Mn(L)]t=k0[Mn(L)]+kH[Mn(HL)]+kHHMnH2L+kM[Mn(L)Cu]
Using the expressions for the stability and protonation constants of the complexes, and that of the dinuclear intermediate [Mn(L)Cu], one can derive Equation (1) (in this expression k1 = kH × KMnL×H; k2 = kH^H × KMnL×H; × KMnLH×H; k3 = kM × KMnL×Cu; where KMnL×H; and KMnLH×H are the protonation constants of [Mn(3,9-OPC2A)] and KMnL×Cu is the stability constant of the dinuclear [Mn(3,9-OPC2A)Cu]^2+ intermediate, which is used for the fitting of the kobs rate data—the proton assisted dissociation pathways involving a diprotonated intermediate, characterized k2, play a negligible role in the dissociation of the [Mn(3,9-OPC2A)] complex under the experimental conditions used for kinetic studies. (2) kobs=k0+k1H^+/1+KHH^++KMCu^2+
Metal exchange reactions occurring between the complex and Cu(II) (in the presence of a 20- and 40-fold excess, to ensure pseudo-first-order conditions) was investigated at 25 °C and 0.15 M NaCl ionic strength, by using a JASCO V-760 UV-VIS spectrophotometer at 290 nm. […] The values of the pseudo-first-order rate constants (kobs) were determined using the following equation: At = Av + (A0 − Av)e^kobs×t, where At is the absorbance at time t, A0 is the absorbance of the reactants, and Av is the absorbance of the products.

In the case of `O=C([O-])CN1CCOCCN(CC(=O)[O-])Cc2cccc(n2)C1.[Mn+2]` [[Mn(3,9-OPC2A)]], the “t1/2 (h) at pH = 7.4” value (extrapolated to pH = 7.4 from Cu(II) exchange rate constants, calculated with the use of k0 value, cZn(II) = 1 × 10^−5 M) is recorded as 21.9 h. Further, the k1 (proton assisted dissociation, T = 25 °C, I = 0.15 M NaCl) is 2.81 ± 0.07 M⁻¹ s⁻¹ and 2.81 M⁻¹ s⁻¹. Also, where the note is “spontaneous dissociation, T = 25 °C, I = 0.15 M NaCl, to be treated as higher limit”, the k0 result was “(8.6 ± 1.1) × 10^−6 s^−1”. In addition, the “KML x Cu” value (stability constant of dinuclear intermediate, T = 25 °C, I = 0.15 M NaCl) is on record as 7 ± 4.
